What was measured:
Rattus norvegicus = test: Metabolic stability in rat liver assessed as nucleoside triphosphate formation at 30 umol/kg, po after 6 hrs; details: in vivo
Hepatitis C virus = test: Antiviral activity against HCV infected in human hepatoma cells by replicon assay; type: functional, Hepacivirus hominis
Hepatocyte [1] = test: Metabolic stability in rat hepatocyte assessed as nucleoside triphosphate at 10 uM level after 2 hrs; details: hepatocytes
Hepatocyte [2] = test: Metabolic stability in human hepatocyte assessed as nucleoside triphosphate at 10 uM level after 2 hrs; details: hepatocytes

Row | SMILES | Stability (Rattus norvegicus) [nmol/g] | Activity (Hepatitis C virus) [nM] | Stability (Hepatocyte [1]) [µM] | Stability (Hepatocyte [2]) [µM]
1 | C[C@@]1(O)[C@H](O)[C@@H](COP(=O)(NCCOC(=O)c2ccccc2)Oc2ccccc2)O[C@H]1n1ccc(N)nc1=O (some centres not stated) | 0.3 | 1960 | – | –
2 | CC(C)[C@H](N)C(=O)O[C@@H]1[C@@H](CO)O[C@@H](n2ccc(N)nc2=O)[C@]1(C)O [VALOPICITABINE] | 0.2 | 7600 | < 14 | 17
3 | CC(C)C(=O)O[C@H]1CCN(P(=O)(OC[C@H]2O[C@@H](n3ccc(N)nc3=O)[C@](C)(O)[C@@H]2O)Oc2ccccc2)C1 (some centres not stated) | – | <20000 | – | –
4 | CC(C)C(=O)OCC(Cc1ccccc1)NP(=O)(OC[C@H]1O[C@@H](n2ccc(N)nc2=O)[C@](C)(O)[C@@H]1O)Oc1ccccc1 (some centres not stated) | – | 921 | – | –
5 | CC(C)(C)C(=O)OCCNP(=O)(OC[C@H]1O[C@@H](n2ccc(N)nc2=O)[C@](C)(O)[C@@H]1O)Oc1ccccc1 (some centres not stated) | – | 226 | – | –
6 | CC(C)CC(COC(=O)C(C)(C)C)NP(=O)(OC[C@H]1O[C@@H](n2ccc(N)nc2=O)[C@](C)(O)[C@@H]1O)Oc1ccccc1 (some centres not stated) | – | 1840 | – | –
7 | CCC(CC)C(=O)OCCNP(=O)(OC[C@H]1O[C@@H](n2ccc(N)nc2=O)[C@](C)(O)[C@@H]1O)Oc1ccccc1 (stereo in doubt; 9) [DIASTEREOMERIC MIX] | – | 2830 | – | –
8 | CC(CNP(=O)(OC[C@H]1O[C@@H](n2ccc(N)nc2=O)[C@](C)(O)[C@@H]1O)Oc1ccccc1)OC(=O)C(C)C (some centres not stated) | – | 585 | – | –
9 | CCCC(CCC)C(=O)OCCNP(=O)(OC[C@H]1O[C@@H](n2ccc(N)nc2=O)[C@](C)(O)[C@@H]1O)Oc1ccccc1 (stereo in doubt; 10a) [2-((((2R,3R,4R,5R)-5-(4-AMINO-2-OXOPYRIMIDIN-1(2H)-YL)-3,4-DIHYDROXY-4-METHYLTETRAHYDROFURAN-2-YL)METHOXY)(PHENOXY)PHOSPHORYLAMINO)ETHYL 2-PROPYLPENTANOATE (DIASTEREOMERIC  MIX)] | – | 450 | – | –
10 | CCCC(CCC)C(=O)OCCNP(=O)(OC[C@H]1O[C@@H](n2ccc(N)nc2=O)[C@](C)(O)[C@@H]1O)Oc1ccccc1 (stereo in doubt; 10b) [2-((((2R,3R,4R,5R)-5-(4-AMINO-2-OXOPYRIMIDIN-1(2H)-YL)-3,4-DIHYDROXY-4-METHYLTETRAHYDROFURAN-2-YL)METHOXY)(PHENOXY)PHOSPHORYLAMINO)ETHYL 2-PROPYLPENTANOATE (DIASTEREOMERIC  MIX)] | 0.2 | 240 | – | –
11 | CCC(CC)C(=O)OCCNP(=O)(OC[C@H]1O[C@@H](n2ccc(N)nc2=O)[C@](C)(O)[C@@H]1O)Oc1ccccc1 (stereo in doubt; 9b) [DIASTEREOMERIC MIX] | – | 625 | – | –
12 | C[C@@]1(O)[C@H](O)[C@@H](COP(=O)(NCCOC(=O)C2CCCCCC2)Oc2ccccc2)O[C@H]1n1ccc(N)nc1=O (some centres not stated) | – | 1160 | – | –
